Measured values reported in publication PMC11053944, “FRET Assays for the Identification of C. albicans HSP90-Sba1 and Human HSP90α-p23 Binding Inhibitors” (Pharmaceuticals, 2024).
“Also recorded” adds a separate entry of the source. Where two headings read alike, the source gives them in different places.

Key:
[1] = target: T1, C. albicans HSP90–Sba1 binding (Candida albicans, UniProt P46598); experiment: FRET inhibitor screening assay, C. albicans HSP90-Sba1 binding; conditions: 10 or 100 µM (Sba1 20 µM), triplicates, 3 mM ATP, 1% DMSO, 15 min 30 °C
T1 construct: made in house; host or cells: E. coli BL21(DE3)
T1 sequence (P46598 whole entry): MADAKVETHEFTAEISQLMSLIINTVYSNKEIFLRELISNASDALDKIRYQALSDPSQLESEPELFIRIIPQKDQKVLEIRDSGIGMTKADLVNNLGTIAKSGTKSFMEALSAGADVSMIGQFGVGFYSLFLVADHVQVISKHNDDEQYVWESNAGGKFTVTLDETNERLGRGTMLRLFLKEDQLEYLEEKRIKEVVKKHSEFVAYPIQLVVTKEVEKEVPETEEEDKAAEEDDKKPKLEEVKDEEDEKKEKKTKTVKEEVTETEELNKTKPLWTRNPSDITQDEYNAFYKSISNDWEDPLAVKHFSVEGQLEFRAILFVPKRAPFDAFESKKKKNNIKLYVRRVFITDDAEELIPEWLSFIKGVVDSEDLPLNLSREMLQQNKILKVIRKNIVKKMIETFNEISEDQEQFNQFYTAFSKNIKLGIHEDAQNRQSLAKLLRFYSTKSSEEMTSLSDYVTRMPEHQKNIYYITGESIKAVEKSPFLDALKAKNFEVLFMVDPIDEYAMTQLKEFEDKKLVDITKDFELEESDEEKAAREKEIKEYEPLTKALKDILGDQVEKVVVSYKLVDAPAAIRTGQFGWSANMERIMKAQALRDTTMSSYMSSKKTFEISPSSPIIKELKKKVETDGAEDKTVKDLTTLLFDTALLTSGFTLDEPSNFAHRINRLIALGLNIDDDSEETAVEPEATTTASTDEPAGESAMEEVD
Source text: We used the Z′ factor (Z′) to optimize the FRET assays for screening purposes. Z′ represents a simple statistical parameter for the quality assessment and optimization of HTS assays and screening assays in general. It is a measure that determines the degree of signal separation between binding and non-binding data sets. Calculation of the Z′ factor is based on the standard deviation of the individual data sets as well as their general signal separation. Values ≥ 0.5 can be classified as excellent for screening purposes. […] When the fluorescent fusion proteins of HSP90 and co-chaperones bind to each other, FRET occurs between donor and acceptor fluorophores, and the sensitized emission (EmFRET) signal increases. Consequently, the fluorescence intensity of the donor decreases (FLDD). […] To obtain an informative Z′ value, we calculated it based on at least three independent experiments amounting to 144 samples for both binding and non-binding control data sets (Figure 4B,E). […] We defined the ‘hit threshold’ as a decrease in readout signal of more than 3 standard deviations (SDs) from the mean signal of the binding control. This constitutes a common threshold for hit identification in HTS campaigns.
(§1) FRET experiments were carried out in 384-well microtiter plates (Art. No. 3766 Corning, NY, USA, or Art. No. 781906, Greiner Bio-One GmbH, Frickenhausen, Germany) containing a final volume of 20 µL and measured with a microplate reader Infinite M200Pro (Tecan, Männedorf, Switzerland). The fluorescence was measured in three channels: excitation (ex.): 488 nm/emission (em.): 525 nm (mNeonGreen fluorescence), ex.: 561 nm/em.: 610 nm (mScarlet-I fluorescence) and the FRET channel ex.: 488 nm/em.: 610 nm. The excitation and emission bandwidths were set to 9 and 20 nm, respectively. Experiments for the determination of the equilibrium dissociation constants were performed with a filter-based microplate reader Infinite F200Pro (Tecan, Männedorf, Switzerland). The fluorescence was measured in three channels using the following filters: ex.: 485 ± 20 nm/em.: 535 ± 20 nm (mNeonGreen channel), ex.: 535 ± 20 nm/em.: 612 ± 10 nm (mScarlet-I channel) and the FRET channel ex.: 485 ± 20 nm/em.: 612 ± 10 nm. FRET emission (EmFRET) was calculated according to Song et al. 2011 [81]:(1) EmFRET=FLDA−x×FLDD−(y×FLAA) where FLDA is the fluorescence signal of the FRET channel and FLDD and FLAA are fluorescence signals from the mNeonGreen and mScarlet-I channels, respectively. The correction factors x and y were calculated as follows:(2) x=FLDA/FLDD for samples containing only the donor fluorophore or fluorescent fusion proteins with mNeonGreen and (3) y=FLDA/FLAA for samples containing only the acceptor fluorophore or fluorescent fusion proteins with mScarlet-I in the same concentration as samples containing both the donor and acceptor.
For screening for the identification of ATP-competitive C. albicans HSP90 and HSP90-Sba1 binding inhibitors, 10 µL of HSP90-mNeonGreen ([…]) in HEPES buffer (40 mM HEPES/KOH pH 7.5, 20 mM KCl) was mixed with 10 µL of 200 µM compound solution in 2x reaction buffer (40 mM HEPES/KOH pH 7.5, 20 mM KCl, 10 mM MgCl2, 40 mM Na2MoO4, Triton-X 100 0.2%), 6 mM ATP, 2% DMSO, resulting […] Samples for binding control (3 mM ATP, final concentration) and non-binding control (no ATP) were prepared in the same manner without compounds. The samples were incubated for 15 min at 30 °C prior to measurement.

human HSP90α–p23 binding = target: T2, human HSP90α–p23 binding (Homo sapiens, UniProt P07900); experiment: FRET inhibitor screening assay, human HSP90α-p23 binding; conditions: 10 or 100 µM, triplicates, 3 mM ATP, 1% DMSO, 15 min 37 °C
T2 construct: made in house; host or cells: E. coli Rosetta2(DE3) pLysS
Source text: We used the Z′ factor (Z′) to optimize the FRET assays for screening purposes. Z′ represents a simple statistical parameter for the quality assessment and optimization of HTS assays and screening assays in general. It is a measure that determines the degree of signal separation between binding and non-binding data sets. Calculation of the Z′ factor is based on the standard deviation of the individual data sets as well as their general signal separation. Values ≥ 0.5 can be classified as excellent for screening purposes. […] When the fluorescent fusion proteins of HSP90 and co-chaperones bind to each other, FRET occurs between donor and acceptor fluorophores, and the sensitized emission (EmFRET) signal increases. Consequently, the fluorescence intensity of the donor decreases (FLDD). […] We defined the ‘hit threshold’ as a decrease in readout signal of more than 3 standard deviations (SDs) from the mean signal of the binding control. This constitutes a common threshold for hit identification in HTS campaigns.
The excitation and emission bandwidths were set to 9 and 20 nm, respectively. Experiments for the determination of the equilibrium dissociation constants were performed with a filter-based microplate reader Infinite F200Pro (Tecan, Männedorf, Switzerland). […] The correction factors x and y were calculated as follows:(2) x=FLDA/FLDD for samples containing only the donor fluorophore or fluorescent fusion proteins with mNeonGreen and (3) y=FLDA/FLAA for samples containing only the acceptor fluorophore or fluorescent fusion proteins with mScarlet-I in the same concentration as samples containing both the donor and acceptor.
For screening for the identification of ATP-competitive C. albicans HSP90 and HSP90-Sba1 binding inhibitors, 10 µL of HSP90-mNeonGreen (2 µM) and Sba1-mScarlet-I (4 µM) in HEPES buffer (40 mM HEPES/KOH pH 7.5, 20 mM KCl) was mixed with 10 µL of 200 µM compound solution in 2x reaction buffer (40 mM HEPES/KOH pH 7.5, 20 mM KCl, 10 mM MgCl2, 40 mM Na2MoO4, Triton-X 100 0.2%), 6 mM ATP, 2% DMSO, resulting ultimately in constant HSP90-mNeonGreen concentrations of 1 µM and Sba1-mScarlet-I 2 µM in reaction buffer. Samples for binding control (3 mM ATP, final concentration) and non-binding control (no ATP) were prepared in the same manner without compounds. The samples were incubated for 15 min at 30 °C prior to measurement. The assay for the human HSP90α–p23 binding inhibitor identification was performed analogously, with the exception that samples were incubated for 15 min at 37 °C prior to measurement. Since binding samples show both a high EmFRET as well as a reduction in donor emission (FLDD), we calculated the quotient (EmFRET/FLDD) to derive an improved signal separation and robustness. The nucleoside-mimetics library was obtained from Enamine (catalog No. NML-320-X-20, Enamine Ltd., Kyiv, Ukraine). Z′ and Z factors were calculated based on Zhang et al..

HSP90 - Sba1/p23 binding = conditions: according to literature, cited from earlier work
[2] = target: T3, C. albicans HSP90-mNeonGreen–Sba1-mScarlet-I binding (Candida albicans, UniProt P46598, E36A); conditions: 20 µM added; 1 µM HSP90-mNeonGreen, 2 µM Sba1-mScarlet-I, 5 mM ATP
T3 construct: made in house; host or cells: E. coli BL21(DE3)
T3 sequence (P46598 whole entry, stated change not applied): as the sequence (P46598 whole entry) above
Procedure: (§2) In this investigation, 1 µM HSP90-mNeonGreen was incubated with 2 µM Sba1-mScarlet-I in reaction buffer containing 5 mM ATP either alone (UC) or with the addition of 20 µM Sba1. As a negative control, samples containing 20 µM bovine serum albumin (BSA) were used.
as §1
All experiments were carried out in reaction buffer (40 mM HEPES/KOH pH 7.5, 20 mM KCl, 5 mM MgCl2, 20 mM Na2MoO4, Triton-X 100 0.1%). HEPES and KCl were purchased from AppliChem, Darmstadt, Germany. […]

[3] = target: T4, human HSP90α-mNeonGreen–p23-mScarlet-I binding (Homo sapiens, UniProt P07900, E47A); experiment: FRET characterization of model inhibitors and ATP on human HSP90α-p23 binding; conditions: 20 µM added; 1 µM HSP90α-mNeonGreen, 2 µM p23-mScarlet-I, 5 mM ATP
T4 construct: made in house; host or cells: E. coli Rosetta2(DE3) pLysS
Procedure: as §2, §1
All experiments were carried out in reaction buffer (40 mM HEPES/KOH pH 7.5, 20 mM KCl, 5 mM MgCl2, 20 mM Na2MoO4, Triton-X 100 0.1%). HEPES and KCl were purchased from AppliChem, Darmstadt, Germany. KOH and MgCl2 were obtained from VWR Chemicals, Darmstadt, Germany. Na2MoO4 was from Merck, Darmstadt, Germany. Triton-X 100 was purchased from Serva, Heidelberg, Germany.
For C. albicans Sba1 competition experiments for HSP90-mNeonGreen–Sba1-mScarlet-I binding, 1 µM HSP90-mNeonGreen and 1 µM Sba1-mScarlet-I were incubated with varying concentrations of Sba1 in a range of 0–25,000 nM (lowest non-zero concentration 12 nM) in reaction buffer containing 5 mM ATP. The experiment was performed twice in nonaplicates. For human p23 competition experiments for HSP90α-mNeonGreen–p23-mScarlet-I binding, 1 µM HSP90α-mNeonGreen and 1 µM p23-mScarlet-I were incubated with varying concentrations of p23 in a range of 0–50 000 nM (lowest non-zero concentration 23 nM) in reaction buffer containing 5 mM ATP. The experiment was performed twice in hexaplicates. […] The experiment was performed thrice in triplicates. […] The IC50,rel values were calculated using the equation log (inhibitor) vs. response-variable slope (four parameters) in GraphPad Prism 5. Ki values for inhibition of HSP90-mNeonGreen–Sba1-mScarlet-I/p23-mScarlet-I binding by non-labeled Sba1/p23 were calculated with One Site—Fit Ki in GraphPad Prism 5. […] The EC50,rel values were calculated using the log (agonist) vs. response-variable slope (four parameters) equation in GraphPad Prism 5.

Molecule | hit identification (EmFRET/FLDD decrease of more than 3 SDs from binding control mean) [1] | hit identification (EmFRET/FLDD decrease of more than 3 SDs from binding control mean) (human HSP90α–p23 binding) | Influence on p23/Sba1 binding (HSP90 - Sba1/p23 binding) | hit identification (EmFRET/FLDD decrease of more than 3 SDs from binding control mean) ([1]; listed as luminespib) | Influence on p23/Sba1 binding (HSP90 - Sba1/p23 binding; listed as Withaferin A) | effect on FRET emission (EmFRET) versus untreated control [2] | effect on FRET emission (EmFRET) versus untreated control [3]
COc1cc(C2Oc3cc([C@H]4Oc5cc(O)cc(O)c5C(=O)[C@@H]4O)ccc3OC2CO)ccc1O (stereo partly drawn) [silibinin] | do not show an effect; also recorded: show no influence | show no influence |  |  |  |  | 
C[C@@H]1C[C@H]2O[C@@H]2/C=C\C=C\C(=O)Cc2c(Cl)c(O)cc(O)c2C(=O)O1 [radicicol] | reliably identified as disrupting HSP90-Sba1 binding; also recorded: reliably identified as hits |  | Yes |  |  |  | 
CCNC(=O)c1noc(-c2cc(C(C)C)c(O)cc2O)c1-c1ccc(CN2CCOCC2)cc1 [NVP-AUY922, luminespib] | reliably identified as hits |  | Yes | reliably identified as disrupting HSP90-Sba1 binding |  |  | 
COc1cc2c(cc1OC)[C@@H]1C(=O)c3ccc4c(c3O[C@@H]1CO2)C=CC(C)(C)O4 [deguelin] | do not show an effect; also recorded: show no influence | show no influence |  |  |  |  | 
O=C(O[C@@H]1Cc2c(O)cc(O)cc2O[C@@H]1c1cc(O)c(O)c(O)c1)c1cc(O)c(O)c(O)c1 [EGCG, (−)-Epigallocatechin-3-gallate] | pan-assay interfering compound (PAIN) | strong decrease in FRET emission; also recorded: pan-assay interfering compound (PAIN) | Yes |  |  |  | 
CC1=C(CO)C(=O)O[C@@H]([C@@H](C)[C@H]2CC[C@H]3[C@@H]4C[C@H]5O[C@]56[C@@H](O)C=CC(=O)[C@]6(C)[C@H]4CC[C@]23C)C1 [withaferin A] | do not show an effect; also recorded: show no influence | show no influence | not influence |  | No |  | 
bovine serum albumin [BSA] |  |  |  |  |  | did not show a significant influence; also recorded: no significant (n.s.) reduction | did not show a significant influence
CC1=C(O)C(=O)C=C2C1=CC=C1[C@@]2(C)CC[C@@]2(C)[C@@H]3C[C@](C)(C(=O)O)CC[C@]3(C)CC[C@]12C [celastrol] | show no influence | show no influence | No and not influence |  |  |  | 
